The results in this text go back to ChEMBL document CHEMBL1697781, “Assessment of the health effects of chemicals in humans: II. Construction of an adverse effects database for QSAR modeling” (Curr Drug Discov Technol, 2004).

For the first data set, the system named is Hepatotoxicity. As to the kind of experiment: FDA HLAED, liver enzyme composite activity. Particulars: human.
Regarding `CC(=O)O.C[C@H]1C[C@@H]2[C@H]([C@@H](O)C[C@@]3(C)[C@H]2CC[C@]3(O)C(=O)CO)[C@@]2(C)C=CC(=O)C=C12`, the “Composite Activity - Active” value is 0 and the “Composite Activity - Marginal” value is recorded as 0.

On to `FC(F)OC(F)(F)C(F)Cl` (stereo unspecified), for which the “Composite Activity - Active” value turned out to be 0 and the “Composite Activity - Marginal” value was 0.

Take `N[C@@H](Cc1ccc(N(CCCl)CCCl)cc1)C(=O)O`: the “Composite Activity - Active” value was found to be 0 and the “Composite Activity - Marginal” value was 0.

As to `NC12CC3CC(CC(C3)C1)C2` [AMANTADINE], the “Composite Activity - Active” value is 0 and the “Composite Activity - Marginal” value is reported as 0.

Regarding `NCCCCCC(=O)O` [AMINOCAPROIC ACID], the “Composite Activity - Active” value is listed as 0 and the “Composite Activity - Marginal” value is 0.

On to `CN(C)CCC=C1c2ccccc2CCc2ccccc21` [AMITRIPTYLINE], for which the “Composite Activity - Active” value stood at 0 and the “Composite Activity - Marginal” value was 0.

With `C[C@@H]1[C@H](O)[C@@H](C)/C=C/C=C/C=C/C=C/C=C/C=C/C=C/[C@H](O[C@@H]2O[C@H](C)[C@@H](O)[C@H](N)[C@@H]2O)C[C@@H]2O[C@](O)(C[C@@H](O)C[C@@H](O)[C@H](O)CC[C@@H](O)C[C@@H](O)CC(=O)O[C@H]1C)C[C@H](O)[C@H]2C(=O)O` [AMPHOTERICIN B], the “Composite Activity - Active” value is recorded as 0 and the “Composite Activity - Marginal” value came out at 0.

Regarding `CC(=O)Oc1ccccc1C(=O)O` [ASPIRIN], the “Composite Activity - Active” value was 0 and the “Composite Activity - Marginal” value is 0.

As to `CN1[C@@H]2CC[C@H]1C[C@@H](OC(c1ccccc1)c1ccccc1)C2` [BENZTROPINE], the “Composite Activity - Active” value worked out at 0 and the “Composite Activity - Marginal” value was 0.

Turning to `CC(=O)OCC(=O)[C@@]1(O)[C@@H](C)C[C@H]2[C@@H]3CCC4=CC(=O)C=C[C@]4(C)[C@@]3(F)[C@@H](O)C[C@@]21C` [BETAMETHASONE ACETATE], the “Composite Activity - Active” value worked out at 0 and the “Composite Activity - Marginal” value worked out at 0.

Take `CC(=O)OCC(=O)[C@@]1(OC(=O)C(C)C)[C@@H](C)C[C@H]2[C@@H]3CCC4=CC(=O)C=C[C@]4(C)[C@@]3(F)[C@@H](O)C[C@@]21C` [BETAMETHASONE ACIBUTATE]: the “Composite Activity - Active” value worked out at 0 and the “Composite Activity - Marginal” value is recorded as 0.

As to `C[C@H]1C[C@H]2[C@@H]3CCC4=CC(=O)C=C[C@]4(C)[C@@]3(F)[C@@H](O)C[C@]2(C)[C@@]1(OC(=O)c1ccccc1)C(=O)CO` [BETAMETHASONE BENZOATE], the “Composite Activity - Active” value is on record as 0 and the “Composite Activity - Marginal” value is recorded as 0.

Regarding `CCCC(=O)O[C@]1(C(=O)COC(=O)CC)[C@@H](C)C[C@H]2[C@@H]3CCC4=CC(=O)C=C[C@]4(C)[C@@]3(F)[C@@H](O)C[C@@]21C` [BETAMETHASONE BUTYRATE PROPIONATE], the “Composite Activity - Active” value came to 0 and the “Composite Activity - Marginal” value was 0.

Turning to `CCC(=O)OCC(=O)[C@@]1(OC(=O)CC)[C@@H](C)C[C@H]2[C@@H]3CCC4=CC(=O)C=C[C@]4(C)[C@@]3(F)[C@@H](O)C[C@@]21C` [BETAMETHASONE DIPROPIONATE], the “Composite Activity - Active” value is 0 and the “Composite Activity - Marginal” value turned out to be 0.

In the case of `CCCCC(=O)O[C@]1(C(=O)CO)[C@@H](C)C[C@H]2[C@@H]3CCC4=CC(=O)C=C[C@]4(C)[C@@]3(F)[C@@H](O)C[C@@]21C` [BETAMETHASONE VALERATE], the “Composite Activity - Active” value was determined as 0 and the “Composite Activity - Marginal” value was found to be 0.

As for `C[C@H]1C[C@H]2[C@@H]3CCC4=CC(=O)C=C[C@]4(C)[C@@]3(F)[C@@H](O)C[C@]2(C)[C@@]1(O)C(=O)CO` [BETAMETHASONE], the “Composite Activity - Active” value was determined as 0 and the “Composite Activity - Marginal” value is recorded as 0.

As to `CS(=O)(=O)OCCCCOS(C)(=O)=O` [BUSULFAN], the “Composite Activity - Active” value turned out to be 0 and the “Composite Activity - Marginal” value is listed as 0.

`Cc1nnc(SCC2=C(C(=O)O)N3C(=O)[C@@H](NC(=O)Cn4cnnn4)[C@H]3SC2)s1` [CEFAZOLIN]: the “Composite Activity - Active” value is listed as 0 and the “Composite Activity - Marginal” value is recorded as 0.

For the compound `CN1C(=O)CCS(=O)(=O)C1c1ccc(Cl)cc1` (stereo unspecified) [CHLORMEZANONE], the “Composite Activity - Active” value worked out at 0 and the “Composite Activity - Marginal” value came to 0.

As to `O=C(O)C1N=C(c2ccccc2)c2cc(Cl)ccc2NC1=O` (stereo unspecified) [CLORAZEPIC ACID], the “Composite Activity - Active” value is listed as 0 and the “Composite Activity - Marginal” value was 0.

`O=C1CN(/N=C/c2ccc(-c3ccc([N+](=O)[O-])cc3)o2)C(O)=N1` [DANTROLENE]: the “Composite Activity - Active” value worked out at 0 and the “Composite Activity - Marginal” value is on record as 0.

As for `CC(=O)OCC(=O)[C@@]1(OC(=O)c2ccco2)[C@H](C)C[C@H]2[C@@H]3CCC4=CC(=O)C=C[C@]4(C)[C@@]3(F)[C@@H](O)C[C@@]21C` [DEXAMETHASONE ACEFURATE], the “Composite Activity - Active” value came out at 0 and the “Composite Activity - Marginal” value came out at 0.

With `CC(=O)OCC(=O)[C@@]1(O)[C@H](C)C[C@H]2[C@@H]3CCC4=CC(=O)C=C[C@]4(C)[C@@]3(F)[C@@H](O)C[C@@]21C` [DEXAMETHASONE ACETATE], the “Composite Activity - Active” value was determined as 0 and the “Composite Activity - Marginal” value is given as 0.

For the compound `CCC(=O)OCC(=O)[C@@]1(OC(=O)CC)[C@H](C)C[C@H]2[C@@H]3CCC4=CC(=O)C=C[C@]4(C)[C@@]3(F)[C@@H](O)C[C@@]21C` [DEXAMETHASONE DIPROPIONATE], the “Composite Activity - Active” value was determined as 0 and the “Composite Activity - Marginal” value is 0.

For `CCCCC(=O)O[C@]1(C(=O)CO)[C@H](C)C[C@H]2[C@@H]3CCC4=CC(=O)C=C[C@]4(C)[C@@]3(F)[C@@H](O)C[C@@]21C` [DEXAMETHASONE VALARATE], the “Composite Activity - Active” value turned out to be 0 and the “Composite Activity - Marginal” value came to 0.

Consider `C[C@@H]1C[C@H]2[C@@H]3CCC4=CC(=O)C=C[C@]4(C)[C@@]3(F)[C@@H](O)C[C@]2(C)[C@@]1(O)C(=O)CO` [DEXAMETHASONE], for which the “Composite Activity - Active” value was 0 and the “Composite Activity - Marginal” value came to 0.

In the case of `CC(C)N(CCC(C(N)=O)(c1ccccc1)c1ccccn1)C(C)C` (stereo unspecified) [DISOPYRAMIDE], the “Composite Activity - Active” value turned out to be 0 and the “Composite Activity - Marginal” value was 0.

On to `COc1cccc2c1C(=O)c1c(O)c3c(c(O)c1C2=O)C[C@@](O)(C(=O)CO)C[C@@H]3O[C@H]1C[C@H](N)[C@H](O)[C@H](C)O1` [DOXORUBICIN], for which the “Composite Activity - Active” value came out at 0 and the “Composite Activity - Marginal” value amounted to 0.

`CC[C@@H](CO)NCCN[C@@H](CC)CO` [ETHAMBUTOL]: the “Composite Activity - Active” value worked out at 0 and the “Composite Activity - Marginal” value was found to be 0.

Regarding `CCNC(C)Cc1cccc(C(F)(F)F)c1` (stereo unspecified) [FENFLURAMINE], the “Composite Activity - Active” value is recorded as 0 and the “Composite Activity - Marginal” value was found to be 0.

On to `O=c1[nH]c(=O)n([C@H]2C[C@H](O)[C@@H](CO)O2)cc1F` [FLOXURIDINE], for which the “Composite Activity - Active” value is recorded as 0 and the “Composite Activity - Marginal” value came to 0.

Take `Nc1nc(=O)[nH]cc1F` [FLUCYTOSINE]: the “Composite Activity - Active” value came to 0 and the “Composite Activity - Marginal” value was 0.

Take `CCCCCCCCCC(=O)OCCN1CCN(CCCN2c3ccccc3Sc3ccc(C(F)(F)F)cc32)CC1` [FLUPHENAZINE DECANOATE]: the “Composite Activity - Active” value turned out to be 0 and the “Composite Activity - Marginal” value was 0.

Regarding `CCCCCCC(=O)OCCN1CCN(CCCN2c3ccccc3Sc3ccc(C(F)(F)F)cc32)CC1` [FLUPHENAZINE ENANTHATE], the “Composite Activity - Active” value amounted to 0 and the “Composite Activity - Marginal” value was 0.

Consider `OCCN1CCN(CCCN2c3ccccc3Sc3ccc(C(F)(F)F)cc32)CC1` [FLUPHENAZINE], for which the “Composite Activity - Active” value is on record as 0 and the “Composite Activity - Marginal” value amounted to 0.

In the case of `O=C(CCCN1CCC(O)(c2ccc(Cl)cc2)CC1)c1ccc(F)cc1` [HALOPERIDOL], the “Composite Activity - Active” value is recorded as 0 and the “Composite Activity - Marginal” value is 0.

Regarding `NS(=O)(=O)c1cc2c(cc1Cl)NCNS2(=O)=O` [HYDROCHLOROTHIAZIDE], the “Composite Activity - Active” value was found to be 0 and the “Composite Activity - Marginal” value amounted to 0.

As to `NC(=O)NO` [HYDROXYUREA], the “Composite Activity - Active” value was 0 and the “Composite Activity - Marginal” value was 0.

For `OCCOCCN1CCN(C(c2ccccc2)c2ccc(Cl)cc2)CC1` (stereo unspecified) [HYDROXYZINE], the “Composite Activity - Active” value came out at 0 and the “Composite Activity - Marginal” value is given as 0.

Take `COC(=O)Nc1nc2ccc(C(=O)c3ccccc3)cc2[nH]1` [MEBENDAZOLE]: the “Composite Activity - Active” value is recorded as 0 and the “Composite Activity - Marginal” value was determined as 0.

Consider `CC(=O)O[C@]1(C(C)=O)CC[C@H]2[C@@H]3C[C@H](C)C4=CC(=O)CC[C@]4(C)[C@H]3CC[C@@]21C` [MEDROXYPROGESTERONE ACETATE], for which the “Composite Activity - Active” value was determined as 0 and the “Composite Activity - Marginal” value was 0.

As for `CC(=O)O[C@]1(C(C)=O)CC[C@H]2[C@@H]3C=C(C)C4=CC(=O)CC[C@]4(C)[C@H]3CC[C@@]21C` [MEGESTROL ACETATE], the “Composite Activity - Active” value came to 0 and the “Composite Activity - Marginal” value came out at 0.

Consider `C#C[C@]1(O)CC[C@H]2[C@@H]3CCc4cc(OC)ccc4[C@H]3CC[C@@]21C` [MESTRANOL], for which the “Composite Activity - Active” value is recorded as 0 and the “Composite Activity - Marginal” value was 0.

Take `C=CCC1(C(C)C#CCC)C(=O)N=C(O)N(C)C1=O` (stereo unspecified) [METHOHEXITAL]: the “Composite Activity - Active” value was determined as 0 and the “Composite Activity - Marginal” value is on record as 0.

Staying with this data set, now noted: human, Liver.
Regarding `CC1=C(C(=O)O)N2C(=O)[C@@H](NC(=O)[C@H](N)c3ccccc3)[C@H]2SC1` [CEPHALEXIN ANHYDROUS], the “Composite Activity - Active” value is reported as 0 and the “Composite Activity - Marginal” value is 0.

As to `CN(C)CCC=C1c2ccccc2C=Cc2ccccc21` [CYCLOBENZAPRINE], the “Composite Activity - Active” value turned out to be 0 and the “Composite Activity - Marginal” value is recorded as 0.

As to `CN1C(=O)CN=C(c2ccccc2)c2cc(Cl)ccc21` [DIAZEPAM], the “Composite Activity - Active” value came out at 0 and the “Composite Activity - Marginal” value came to 0.

Turning to `CCc1cc(C(N)=S)ccn1` [ETHIONAMIDE], the “Composite Activity - Active” value is 0 and the “Composite Activity - Marginal” value is recorded as 0.
